Measurements reported in patent US6743423B1, “Use of adeno-associated viruses for decreasing the radiotherapy-induced or chemotherapy- induced resistance in cancer patients” (Deutsches Krebsforschungszentrum Stiftung des Offentlichen …, priority 1998, dated 2004).

Tests used:
Format in all cases: cell-based, human
NCI-H69 = assay: MTT proliferation assay, SCLC cell line NCI-H69 (chemotherapeutic agents with or without AAV-2 infection); details: AAV-2 infection 10^4 per cell vs mock infection
Experimental: (§1) Small cell lung carcinoma cell lines (NCI-H69, NCI-H164, NCI-H209, and NCI-H446) (Cancer Res., 1980, 40, 3502-3507; Cancer Res., 1985, 45, 2913-2923) were cultured in RPMI-1640 medium (Eurobio, Raunheim, Germany). HeLa cells were cultured in DMEN (Eurobio, Raunheim, Germany). All growth media were supplemented with glutamine (Eurobio, 1%), antibiotics (penicillin and streptomycin) and 10% heat-inactivated fetal calf serum (PAA; Liz, Austria). The cultures were incubated at 37° C. in a damp atmosphere with 5% CO2 and tested for mycoplasma contaminations at regular intervals.
The adeno-associated virus type 2 (AAV-2) was replicated in HeLa cells using, adenovirus type 2 (Ad-2) as a helper. […]
The proliferation of the SLCL cells after the infection with AAV-2 and/or treatment with chemotherapeutic agents was determined by the modified MTT test (J. Immunol. Methods, 1983, 56, 55-63). […] The precipitated proteins were pelleted by centrifugation (1000 rpm, 15 min), and 200 ul samples of the supernatant were measured to determine the optical density at 540 nm (OD540), OD690 being used as a reference and a Titertek Multiskan plus MKII densitometer being employed (Lab Systems, Finland). […]
(§2) The AAV-2-infected cells (MOI values as indicated) or mock-infected cells were placed in plates having 24 wells and treated with cisplatin. After six or eight days, the relative proliferation was determined. […]

NCI-H209 = assay: MTT proliferation assay, SCLC cell line NCI-H209 (chemotherapeutic agents with or without AAV-2 infection); details: for Sensitization factor (A/Ao)* 10^4 Ip.AAV/Cell: AAV-2 infection 10^4 per cell vs mock infection
Experimental: as §1
(§3) The adeno-associated virus type 2 (AAV-2) was replicated in HeLa cells using, adenovirus type 2 (Ad-2) as a helper. AAV was purified in a cesium-chloride gradient and titrated as described in J. Gen. Virol., 1994, 74, 2655-2662. The adenovirus type 2 inocula were clarified supernatants of Ad-2-infected HeLa cells.
(§4) The SCLC cells were suspended in PBS and incubated with purified AAV-2 in the indicated multiplicities of infection (MOI). […]
(§5) The proliferation of the SLCL cells after the infection with AAV-2 and/or treatment with chemotherapeutic agents was determined by the modified MTT test (J. Immunol. Methods, 1983, 56, 55-63). […] The precipitated proteins were pelleted by centrifugation (1000 rpm, 15 min), and 200 ul samples of the supernatant were measured to determine the optical density at 540 nm (OD540), OD690 being used as a reference and a Titertek Multiskan plus MKII densitometer being employed (Lab Systems, Finland).
(§6) The relative proliferation (A/Ao) was defined as the ratio of the absorption (A) measured in the supernatant of AAV-2-infected and/or pharmacon-treated cells, compared with the absorption measured for the supernatant of the mock-infected cells and untreated control cells (Ao). […]
as §2

NCI-H446 = assay: MTT proliferation assay, SCLC cell line NCI-H446 (chemotherapeutic agents with or without AAV-2 infection); details: for Sensitization factor (A/Ao)* 10^4 Ip.AAV/Cell: AAV-2 infection 10^4 per cell vs mock infection
Experimental: as §1, §3, §4, §5, §6, §2

NCI-H146 = assay: MTT proliferation assay, SCLC cell line NCI-H146 (chemotherapeutic agents with or without AAV-2 infection); details: for Sensitization factor (A/Ao)* 10^4 Ip.AAV/Cell: AAV-2 infection 10^4 per cell vs mock infection
[1] = cells treated only with cisplatin at IC50

| Compound | Sensitization factor (A/Ao)* 10^4 Ip.AAV/Cell (NCI-H69) | Sensitization factor (A/Ao)* 10^4 Ip.AAV/Cell (NCI-H209) | Relative proliferation (A/Ao) (NCI-H209; [1]) | Sensitization factor (A/Ao)* 10^4 Ip.AAV/Cell (NCI-H446) | Relative proliferation (A/Ao) (NCI-H446; [1]) | Sensitization factor (A/Ao)* 10^4 Ip.AAV/Cell (NCI-H146) | Resistance/susceptibility of the cell line to the agent (NCI-H146) |
| --- | --- | --- | --- | --- | --- | --- | --- |
| N.N.[Cl][Pt][Cl] [Cisplatin, cisplatin] | 1.43 | 2.33 | 0.5 | 2.50 | 0.59 | 1.37 | – |
| COc1cc([C@@H]2c3cc4c(cc3[C@@H](O[C@@H]3O[C@@H]5CO[C@@H](C)O[C@H]5[C@H](O)[C@H]3O)[C@H]3COC(=O)[C@H]23)OCO4)cc(OC)c1O [Etoposide, etoposide] | 1.30 | 2.12 | – | 3.00 | – | 1.38 | highly susceptible |
